The text below walks through data of PMC3230704 (Molecular pharmaceutics, 2011).

One data set has as its system MT1-MMP. To be noted: cited from earlier work.
In data set [1] the test system is MDA-MB-435 tumor-bearing mice. As to the kind of experiment: Ex vivo biodistribution imaging of excised tumors and organs. The format is in vivo. Conditions: 24 hrs post-injection, without inhibitor.
For the next data set, the system named is MDA-MB-435 tumor. As to the kind of experiment: In vivo NIR fluorescence imaging of MT1-MMP-positive tumor-bearing mice.
Another data set deals with MT1-MMP (MMP-14) (Homo sapiens, UniProt P50281). Description: Fluorescence activation of MT-P by activated MT1-MMP. The format is biochemical. Conditions: MT1-MMP 0, 4, 20 and 40 nM, 60 min, spectrofluorimetry.

Where no end group is shown, it is not given here.

As to RIGFLR, the “specificity constant (kcat/Km)” value in the data set on MT1-MMP is recorded as 777,200 M^−1s^−1.

On to GRIGFLRTAKGG [MT-P], for which the “biodistribution of activated fluorescence” value in data set [1] was “activated predominantly in the tumor and liver over other organs”. Also, the “onset of activation in tumor” value in the data set on MDA-MB-435 tumor (5 nmol i.v., MDA-MB-435 tumor-bearing mice) was “less than 1 hr”. Besides, the “fluorescent signal in the tumor at 48 hrs post-injection” value in the data set on MDA-MB-435 tumor (48 hrs post-injection) is reported as “not detectable”. Further, the “activation of NIR fluorescent signals over the probe without MT1-MMP” value at MT1-MMP (MMP-14) is listed as “up to 10 fold”.
